In publication PMC6941357, “An in vitro toolbox to accelerate anti-malarial drug discovery and development” (Malaria Journal, 2020):
Values joined by “and” are separate entries in the source; they are usually repeats but may differ in a detail not shown here. Equal values may be shown once.

Tests used:
[1] = Binding to human liver microsomes via ultracentrifugation; assay type: in vitro ADME; settings: human, pH 7.4, 0.4 mg/mL protein, read-out: Fraction unbound, HLM
Procedure, shortened: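 Unbound fraction by ultracentrifugation: Cunbound measured in protein-free supernate, Ctotal from spiked tubes held at 37 °C, sampled at start and end to check degradation. Matrix was 0.4 mg/mL human liver microsomal protein, 0.1 M phosphate pH 7.4; matrix-matched analysis against one calibration curve.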

[2] = Solubility in biorelevant media; settings: for solubility at 1 h / solubility: thermodynamic from solid
Procedure, shortened: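 LC–MS quantification of supernatants, after two centrifugations, in triplicate against calibration standards. Media: FaSSGF sampled at 1 h; FaSSIF-V2, FeSSIF-V2 and pH 7.4 PBS sampled at 5–6 h; all at 37 °C on an orbital mixer at 600 rpm.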

[3] = molecular target: T1, Albumax medium (lipid rich bovine serum albumin) (Bos taurus, UniProt P02769); experiment: Binding in Albumax medium via ultracentrifugation; assay type: in vitro ADME; settings: bovine, isolated protein, pH 7.4
T1 construct: purchased Gibco, Thermo Fisher Scientific
Procedure, shortened: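 Unbound fraction (fu) taken as protein-free supernate concentration over total concentration after ultracentrifuging compound-spiked Albumax at 37 °C (5% or 10% CO2, or air). Analysis used 1:1 mixing with the opposite blank matrix against a common pH 7.4 calibration; degradation judged by start versus end Ctotal.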

[4] = Plasma protein binding via ultracentrifugation (UC); assay type: in vitro ADME, human; settings: pH 7.4
Procedure, shortened: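 Unbound fraction from ultracentrifugation of spiked pooled donor plasma, supernate pH checked and sampled for Cunbound. Ctotal and degradation taken from 37 °C control tubes at start and end; all samples mixed 1:1 with blank plasma or pH 7.4 buffer before analysis on shared calibration.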

[5] = Octanol/pH 7.4 buffer partition coefficient, shake flask; settings: pH 7.4
Procedure, shortened: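 Both phases were measured by LC-MS, the aqueous phase after re-centrifugation, and the partition coefficient was taken as the octanol-to-buffer concentration ratio over two sampling times. Equal volumes of octanol, holding compound at two dilutions of a 3-30 mg/mL stock, and pH 7.4 phosphate/NaCl buffer were mixed at 37 °C.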

CYP2D6 = CYP2D6 (Homo sapiens, UniProt P10635); experiment: Cytochrome P450 inhibition in human liver microsomes; settings: for inhibition at 20 µM: human, microsomes, pH 7.4
Procedure, shortened: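 Substrate-specific interaction method in human liver microsomes: the test compound's effect on production of a single isoform-dependent metabolite, quantified by LC–MS using diazepam as internal standard, is reported as percent inhibition of enzyme activity. Substrate Km was determined under the same incubation conditions.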

[6] = In vitro metabolism (metabolic stability) in human liver microsomes; settings: human
Procedure, shortened: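 Intrinsic clearance (µL/min/mg protein) came from the first-order substrate-depletion rate in human liver microsomes, using only the initial log-linear phase where kinetics deviated. Samples were quenched at 2, 5, 15, 30 and 60 min and quantified by LC–MS. Unbound CLint was obtained by dividing by microsomal fu.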

[7] = FaSSGF, 37 °C, fassgf or other biorelevant
[8] = phosphate buffered saline pH 7.4, 37 °C, pH 7.4, aqueous buffer
[9] = human, neat pooled plasma, ultracentrifugation, neat plasma, read-out: Fraction unbound, human plasma
[10] = liver microsomes, pH 7.4, HLM CLint, human liver microsomes, average of n = 2 replicates, < 7 means < 15% loss over 60 min

T1 sequence (P02769 25-607): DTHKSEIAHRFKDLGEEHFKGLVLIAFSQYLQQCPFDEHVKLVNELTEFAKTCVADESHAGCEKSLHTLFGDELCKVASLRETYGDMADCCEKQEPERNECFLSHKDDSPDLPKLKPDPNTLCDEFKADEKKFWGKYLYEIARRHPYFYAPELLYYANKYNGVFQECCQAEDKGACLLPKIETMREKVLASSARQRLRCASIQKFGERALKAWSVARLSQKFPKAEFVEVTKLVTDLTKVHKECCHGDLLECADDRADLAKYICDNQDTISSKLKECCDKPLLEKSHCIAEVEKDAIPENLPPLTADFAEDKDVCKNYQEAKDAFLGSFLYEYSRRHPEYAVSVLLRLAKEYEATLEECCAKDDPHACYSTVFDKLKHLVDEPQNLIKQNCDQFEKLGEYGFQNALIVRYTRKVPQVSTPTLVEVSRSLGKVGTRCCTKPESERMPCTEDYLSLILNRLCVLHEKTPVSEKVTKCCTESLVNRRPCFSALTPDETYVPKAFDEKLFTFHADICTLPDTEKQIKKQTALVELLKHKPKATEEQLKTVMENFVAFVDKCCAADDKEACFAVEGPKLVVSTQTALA
Chain of CYP2D6 (P10635 whole entry, canonical isoform): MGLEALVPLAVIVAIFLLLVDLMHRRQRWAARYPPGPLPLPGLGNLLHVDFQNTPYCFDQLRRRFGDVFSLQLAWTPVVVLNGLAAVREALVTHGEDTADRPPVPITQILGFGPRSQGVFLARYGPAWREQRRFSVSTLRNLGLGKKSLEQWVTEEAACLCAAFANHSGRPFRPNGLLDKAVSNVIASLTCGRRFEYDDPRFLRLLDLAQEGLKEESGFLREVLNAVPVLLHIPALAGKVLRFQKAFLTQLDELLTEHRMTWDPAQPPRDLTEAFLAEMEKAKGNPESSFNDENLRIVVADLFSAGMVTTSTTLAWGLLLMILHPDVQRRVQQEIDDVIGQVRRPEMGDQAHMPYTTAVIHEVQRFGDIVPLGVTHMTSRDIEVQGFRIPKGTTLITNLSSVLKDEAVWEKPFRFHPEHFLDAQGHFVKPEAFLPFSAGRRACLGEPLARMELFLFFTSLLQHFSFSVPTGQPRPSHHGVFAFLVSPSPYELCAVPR

SMILES | fraction unbound at […] ([1]; liver microsomes) | solubility at 1 h [2, 7] | solubility ([2]; FaSSIF-V2, 37 °C, fassif) | solubility ([2]; FeSSIF-V2, 37 °C, fessif) | solubility [2, 8] | fraction unbound at […], 500 ng/mL [3] | fraction unbound at […] [4, 9] | logD ([5]; octanol/pH 7.4 buffer) | IC50 (CYP2D6) [µM] | inhibition at 20 µM (CYP2D6) [%] | microsomal CLint at 1 µM [6, 10] [µL/min/mg] | Ki (CYP2D6) [µM] | other results
Cc1nc(Nc2ncc(N3CCN(C)[C@H](C)C3)c(Nc3cc(C)n(C)n3)n2)cc(C2CC2)c1F [MMV253] | 0.11 ± 0.017 | > 2000 µg/mL and > 4300 µM | 569 µg/mL and 1220 µM | > 2000 µg/mL and > 4300 µM | 19 µg/mL and 40.8 µM | 0.48 ± 0.026 | 0.067 | 4.42 | > 20 | 35 | 13.2 |  | 
CC(C)(N)CNC(=O)C[C@H]1CC[C@]2(CC1)OO[C@]1(O2)C2CC3CC(C2)CC1C3 [OZ277, Arterolane] |  | > 2000 µg/mL and > 5000 µM | > 2000 µg/mL and > 5100 µM | > 2000 µg/mL and > 5000 µM | 198 µg/mL and 504 µM | 0.29 ± 0.021 | 0.086 ± 0.008 | 2.6 | > 20 |  |  |  | fraction unbound at […] ([1]; microsomes): 0.044 ± 0.005; FaSSGF solubility ([2]; FaSSGF): > 2 mg/mL; FaSSIF solubility ([2]; FaSSIF): > 2 mg/mL; FeSSIF solubility ([2]; FeSSIF): > 2 mg/mL; fraction unbound at […] ([4]; human plasma, fraction unbound, read-out: Plasma fu): 0.086; logD ([5]; octanol/pH 7.4 phosphate buffered saline): 2.6; microsomal CLint at 1 µM ([6]; microsomes, pH 7.4, HLM CLint): < 7 µL/min/mg
COc1cc(NC(C)CCCN)c2ncccc2c1 (centres unmarked) [Primaquine] |  |  |  |  |  | 0.96 ± 0.056 |  |  |  | 33 |  |  | fraction unbound at […] ([1]; microsomes): 0.56 ± 0.05; FaSSGF solubility [2]: > 2 mg/mL; FaSSIF solubility [2]: > 2 mg/mL; FeSSIF solubility [2]: > 2 mg/mL; solubility ([2]; 37 °C, fassgf or other biorelevant): > 2000 µg/mL and > 7700 µM; solubility ([2]; 37 °C, fassif): > 2000 µg/mL and > 7700 µM; solubility ([2]; 37 °C, fessif): > 2000 µg/mL and > 7700 µM; solubility ([2]; 37 °C, pH 7.4, aqueous buffer): > 7.7 mM; Solubility PBS7.4 (5–6 h) ([2]; pH 7.4): > 2000/> 7700 µg/mL; fraction unbound at […] ([4]; human, ultracentrifugation, neat plasma, read-out: Fraction unbound, human plasma): 0.26 ± 0.023; Log D7.4 [5]: 0.54; logD [5]: 0.54; microsomal CLint at 1 µM ([6]; microsomes, pH 7.4): 7.7 µL/min/mg
[H]/N=C(\N/C(=N/[H])Nc1ccc(Cl)cc1)NC(C)C [Proguanil] | 0.33 ± 0.014 | > 2000 µg/mL and > 7880 µM | > 2000 µg/mL and > 7880 µM | > 2000 µg/mL and > 7880 µM | > 2000 µg/mL and > 7880 µM | 0.8 ± 0.021 | 0.34 ± 0.01 | 0.27 | 3.5 |  | < 7 | 2.2 | solubility ([2]; FaSSGF, FaSSIF-V2, FeSSIF-V2 and PBS pH 7.4, 37 °C, pH 7.4, aqueous buffer): > 2 mg/mL
CCc1nc(N)nc(N)c1-c1ccc(Cl)cc1 [Pyrimethamine] | 0.54 ± 0.097 | > 2000 µg/mL and > 8000 µM | 111 µg/mL and 446 µM | 120 µg/mL and 483 µM | 43 µg/mL and 175 µM | 0.46 ± 0.09 | 0.085 | 2.41 | > 20 | 36 | < 7 |  | 
COc1ccc2nc3cc(Cl)ccc3c(Nc3cc(CN4CCCC4)c(O)c(CN4CCCC4)c3)c2n1 [Pyronaridine] | 0.29 ± 0.018 | > 2000 µg/mL and > 3800 µM | > 2000 µg/mL and > 3860 µM | > 2000 µg/mL and > 3800 µM | 357 µg/mL and 689 µM | 0.69 ± 0.023 | 0.21 | 0.23 | 1.2 |  | 8.6 | 0.75 | 
N#Cc1cc(NC(=O)[C@H]2c3ccccc3C(=O)N(CC(F)(F)F)[C@@H]2c2cccnc2)ccc1F [SJ733] | 0.58 ± 0.069 | > 2000 µg/mL and > 4270 µM | 101 µg/mL and 216 µM | 119 µg/mL and 254 µM | 115 µg/mL and 246 µM | 0.4 ± 0.04 | 0.17 | 3.9 | 16 |  | 142 | 9.6 | 
